Where no end group is shown, it is not given here.

From US20170131285A1, “METHODS AND COMPOSITIONS FOR DIAGNOSING, MONITORING AND TREATING CANCER” (INSERM (Institut National de la Sante et de la Recherche …, priority 2014, published 2017) come the findings set out here.

In this experiment the test system is MSC2 cells. The experiment in a line: pSTAT3 western blot in MSC2 cells incubated with tumor-derived exosomes. The class given is cell-based. Here is the method: FIG. 4: A8 blocks the activation and proliferation of MSC2 cells. (A) IL-6 concentration was determined by ELISA in the supernatant of MSC2 cells incubated or not for 24 h with exosomes (from B16F10) in the presence or absence of A8. *, p<0.05, (n=3). (B) A representative image of a western blot showing the kinetics of STAT3 phosphorylation in MCS2 cells incubated or not with exosomes isolated from B16F10, CT26 or HCT116 cells together with a peptide control (TDE) or A8 (TDE/A8). 14-3-3 is used as a loading control. In the right panels, the amount of pSTAT3 was quantified by densitometric analysis. *, p<0.05, n=4.
Five millions of MSC2 cells were incubated with or without exosomes isolated from B16F10, CT26, HCT116 or SW480 cells in the presence or absence of A8 during 4 h or 6 h. Cells were isolated, lysed and analysed for pSTAT3 by western blotting.
MSC2 (2·10^6) or MDSC (2·10^6) were incubated alone or with exosomes (from B16F10, CT26, HCT116, SW480) in the absence or presence of A8 or A17 (16 μM) during 6 hours (RPMI 10% FBS, 5% of CO2 at 37° C.). Every 2 hours, […] cells were sampled and centrifugated 5 min at 300 g. Cells were lysed in lysis buffer (50 mM HEPES (pH 7.6), 150 mM NaCl, 5 mM EDTA, and 0.1% NP40 and anti-phosphatases, Roche). Then, pSTAT3 and STAT3 expression were analyzed by western blotting.

For the sequence SPWPRPTY [Aptamer A8, SPWPRPTY], the “STAT3 phosphorylation (activation) in MSC2 induced by tumor-derived exosomes” value (exosomes from CT26, B16F10, HCT116, SW480, 4 h and 6 h, aptamer 16 μM) is given as “inhibited the ability of tumor-derived exosomes to activate STAT3”. Moreover, the “MDSC activation (STAT3 phosphorylation in MSC2) in the absence of tumor-derived exosomes” value (no exosomes) is on record as “does not have a direct effect in MDSC activation”.
